Assay results published in US12377069B2, “Compounds, compositions, methods of using, and methods for preparing compounds” (UNIVERSITY OF LOUISVILLE RESEARCH FOUNDATION, INC., priority 2018, dated 2025).

What was measured:
[1] = system: C57BL/6 mice; assay: In vivo Evans Blue permeability assay (LPS); parameters: species or system mouse; conditions: LPS 100 μg i.p.; for LPS-induced TNF-α levels in serum and BAL fluid: 20 mg/kg; for tissue accumulation of Evans Blue (lung and liver): 20 mg/kg after 1 h and 18 h
Description: Acute intoxication of alcohol can induce microvasculature leakage as well as direct exposure to endothelium leads to disruption of endothelial integrity. […] In addition, increased endothelial permeability enhances the extravasation of immune cells into liver leading to increased inflammation. To examine the effect of UroA/UAS03 on endothelial cell permeability, we utilized in vivo Evans Blue permeability assay. Briefly, C57BL/6 mice (n=4/group) were given LPS (100 μg) i.p. followed by treatment with UAS03 or UroA (20 mg/kg) after 1 h and 18 h. Evans blue (i.v.) was given to mice (24 h post LPS treatment) and 30 min later mice were euthanized and the Evans Blue from lung and liver tissues was extracted using formamide. The levels of Evans Blue was determined by OD at 620 nm. […] To evaluate direct impact of UroA or UAS03 on endothelial barrier function, we used in vivo Miles assay to test blood vessel permeability. We used vascular endothelial growth factor (VEGF) as vasodilator. In this assay, C57BL/6 mice (n=3 per group) were given vehicle or UroA or UAS03 (20 mg/kg; oral gavage). After 3 h, Evans blue (100 μL of 1% solution) was administered i.v. followed by intra-dermal administration of VEGF (2.5 ng/mouse) or PBS (control). After 30 min, mice were euthanized and the levels of Evans Blue in skin tissue surrounding the injection site was extracted and estimated as described previously (FIG. 36C). […] To understand molecular mechanisms of UroA/UAS03 mediated endothelial barrier function, we tested the effects of these compounds in Human Umbilical Vein Endothelial Cells (HUVECs). Endotoxins or inflammatory mediators are responsible for decreasing the cell-cell and cell-matrix adhesion leading to increased barrier gaps and permeability. The VE-Cadherin (CDH5), an adherins junction (AJ) protein, can maintain the integrity of endothelial junctions through homotypic interactions with adjacent cell.

[2] = system: HT29 or Caco2 cells; assay: Tight junction protein expression (RT PCR, immunoblot, confocal); assay type: cell-based, human; conditions: 24 h; for tight junction protein levels (Western blots; Cldn4 confocal imaging): HT29 and Caco2, 50 μM
Description: Real time PCR: Total RNA was isolated from cells/tissue using Maxwell® 16 LEV simplyRNA tissue kit (Promega) and reverse transcribed with TaqManC Reverse transcription Kit (Applied Biosystems, CA, USA). The transcribed cDNA (after dilution) was mixed with 100 nM gene specific primers (Real time primers LLC) and 1×SYBR green reaction mix (Power SYBR® Green PCR Master Mix; Applied Biosystems, CA, USA). Changes in gene expression was analyzed using CFX96™ Real-Time System (Bio Rad) and fold change in expression was calculated using 2^ΔΔCT method using GAPDH/0-actin as house keeping gene and normalized with untreated control.
Immunoblots (Western blots): The total protein lysates were collected either from colon tissue/cells using radioimmunoprecipitation assay (RIPA) buffer (Sigma-Aldrich, USA) and quantified using BCA protein quantification kit (Thermo Scientific) as per instructional manual. Total protein (20-50 μg) of was resolved on NuPAGE™ 4-12% Bis-Tris gel (Novex Life technologies) and transferred to polyvinylidene difluoride membrane (0.22 μm pore; Millipore, USA). After blocking with 5% (w/v) skim milk powder (containing 1×TBS) for 1 h, the membrane was then incubated with respective antibodies at 4° C. overnight (dilutions of respective antibodies is given in Table A1). Next day, respective secondary antibody conjugated with Horseradish peroxidase were probed and the chemiluminescent substrate was used to detect the protein bands (ImageQuant LAS 4000). Densitometry analysis of bands were done using ImageJ software. Antibodies for Cldn4, Ocln, Cldn1, Cyp1A1, AhR, HO1, NQO1, Keap1, β-actin and Lamin B were purchased from Santa Cruz Biotechnologies (USA) and Nrf2 from Novus Biologicals (USA).
Confocal Imaging: HT29 or CaCo2 or BMDM cells (50,000 cells/well) were plated on to 8-well chambered slides (154534PK; ThermoFisher Scientific) allowed them to grow overnight. The cells were induced with vehicle (0.01% DMSO) or UroA (50 μM) or UAS03 (50 μM) for desired time points and fixed with cold methonol. […]

[3] = system: 5FUR HCT116 cells; assay: EMT markers in colon cancer cells (Western blot); assay type: cell-based; conditions: for EMT markers ZO-1, E-Cadherin, Snail, β-catenin: 5FUR HCT116, 72 h, in the presence of 5FU
Description: FIG. 41: Western blot analysis of EMT markers in 5FUR HCT116 cells in treated (72 h) with 5FU in the presence or absence of UroA/UAS03.
UroA/UAS03 treatment reduce epithelial-mesenchymal transitions (EMT) signature in 5FU resistant (5FU R) colon cancer cells: We examined EMT markers in 5FU sensitive (parent) and 5FU resistant (5FUR) HCT116 colon cancer cell lines. […] The reciprocal expression of these molecules are hallmarks of EMT signature. Next, we examined whether treatment with UroA/UAS03 can reverse these patterns in 5FUR cells. […] One of the mechanisms by which cancer cells acquire chemoresistant phenotype is by the induction of drug transporters such as Multidrug resistance-associated protein 2 (MRP2), ATP-binding cassette (ABC) drug efflux transporter proteins, BCRP and P-gycoprotein (P-gp).

[4] = system: C57BL/6 mice; assay: 28-day repeated dose toxicity study; conditions: oral 20 or 40 mg/kg daily, 28 days
Description: 28-day repeated dose toxicity study: To evaluate toxicity of UroA and UAS03, we performed 28-days repeated dose toxicity study. Mice were fed (oral gavage) with UroA (20 and 40 mg/kg/day) and UAS03 (20 and 40 mg/kg/day) daily for 28 days. Body weight, food and water intake were assessed weekly. After 28 days, mice were sacrificed and gross examination of all major organs were performed. Blood was collected to obtain serum. Serum alanine aminotransferase (ALT) and asparate aminotransferase (AST) were analyzed using ALT/AST kit (BioVision) as per instructional manual.

[5] = system: C57B6/J mice; assay: LPS-induced sepsis survival; assay type: in vivo, mouse; conditions: LPS 20 mg/kg i.p.; for survival of septic mice: compound 20 mg/kg i.p.
Description: UAS03 (Ether) attenuates septic mortality. C57B6/J mice were injected with lipopolysaccharide intra-peritoneally at a septic dose of 20 mg/kg. The treated animals received either Urolithin-A or UAS03 (Ether) at 20 mg/kg intraperitoneal injection.
Preventive and therapeutic effect of UAS03 (Ether) in septic animals. Animals were injected with LPS intraperitoneally at 20 mg/kg dose to induce sepsis. For Ether+LPS group animals were given UAS03 (20 mg/kg; intraperitoneal) 1 hour prior LPS injection. LPS+Ether group received UAS03 1 hour post LPS injection.

| Structure (SMILES) | LPS-induced TNF-α levels in serum and BAL fluid [1] | tissue accumulation of Evans Blue (lung and liver) [1] | tight junction protein levels (Western blots; Cldn4 confocal imaging) [2] | EMT markers ZO-1, E-Cadherin, Snail, β-catenin [3] | serum AST and ALT levels at day 28 [4] | signs of toxicity (body weights, CBC counts, serum ALT and AST) [4] | survival, pretreated (1 hour prior LPS) ([5]; 20 mg/kg i.p.) | survival, therapeutic group (1 hour post LPS) ([5]; 20 mg/kg i.p.) | survival of septic mice [5] | expression of ZO-1 and Ocln1 (real time PCR) ([2]; HT29, 50 μM) | expression of E-cadherin ([3]; colon cancer cell lines) |
| --- | --- | --- | --- | --- | --- | --- | --- | --- | --- | --- | --- |
| Oc1ccc2c(c1)COc1cc(O)ccc1-2 [UAS03, 6H-benzo[c]chromene-3,8-diol] | reduced LPS-induced TNF-α levels | reduced tissue accumulation of Evans Blue | increased levels | upregulated ZO-1, E-Cadherin, and down regulated Snail and β-catenin | no significant differences | did not exhibit any signs of toxicity | 70% | 100% | 90% |  |  |
| O=c1oc2cc(O)ccc2c2ccc(O)cc12 [UroA, 3,8-dihydroxy-6H-dibenzo[b,d]pyran-6-one] | reduced LPS-induced TNF-α levels | reduced tissue accumulation of Evans Blue | increased levels | upregulated ZO-1, E-Cadherin, and down regulated Snail and β-catenin | no significant differences |  |  |  | 20% | increase in expression | enhanced the expression of E-cadherin |
